Laboratory results reported in BindingDB's records for patent US9273014 (Bristol-Myers Squibb Co., 2016).

Target: Neurogenic locus notch homolog protein 3 (Human, UniProt Q9UM47)
Test: Biological Assay

Chain of Neurogenic locus notch homolog protein 3 (Q9UM47 whole entry): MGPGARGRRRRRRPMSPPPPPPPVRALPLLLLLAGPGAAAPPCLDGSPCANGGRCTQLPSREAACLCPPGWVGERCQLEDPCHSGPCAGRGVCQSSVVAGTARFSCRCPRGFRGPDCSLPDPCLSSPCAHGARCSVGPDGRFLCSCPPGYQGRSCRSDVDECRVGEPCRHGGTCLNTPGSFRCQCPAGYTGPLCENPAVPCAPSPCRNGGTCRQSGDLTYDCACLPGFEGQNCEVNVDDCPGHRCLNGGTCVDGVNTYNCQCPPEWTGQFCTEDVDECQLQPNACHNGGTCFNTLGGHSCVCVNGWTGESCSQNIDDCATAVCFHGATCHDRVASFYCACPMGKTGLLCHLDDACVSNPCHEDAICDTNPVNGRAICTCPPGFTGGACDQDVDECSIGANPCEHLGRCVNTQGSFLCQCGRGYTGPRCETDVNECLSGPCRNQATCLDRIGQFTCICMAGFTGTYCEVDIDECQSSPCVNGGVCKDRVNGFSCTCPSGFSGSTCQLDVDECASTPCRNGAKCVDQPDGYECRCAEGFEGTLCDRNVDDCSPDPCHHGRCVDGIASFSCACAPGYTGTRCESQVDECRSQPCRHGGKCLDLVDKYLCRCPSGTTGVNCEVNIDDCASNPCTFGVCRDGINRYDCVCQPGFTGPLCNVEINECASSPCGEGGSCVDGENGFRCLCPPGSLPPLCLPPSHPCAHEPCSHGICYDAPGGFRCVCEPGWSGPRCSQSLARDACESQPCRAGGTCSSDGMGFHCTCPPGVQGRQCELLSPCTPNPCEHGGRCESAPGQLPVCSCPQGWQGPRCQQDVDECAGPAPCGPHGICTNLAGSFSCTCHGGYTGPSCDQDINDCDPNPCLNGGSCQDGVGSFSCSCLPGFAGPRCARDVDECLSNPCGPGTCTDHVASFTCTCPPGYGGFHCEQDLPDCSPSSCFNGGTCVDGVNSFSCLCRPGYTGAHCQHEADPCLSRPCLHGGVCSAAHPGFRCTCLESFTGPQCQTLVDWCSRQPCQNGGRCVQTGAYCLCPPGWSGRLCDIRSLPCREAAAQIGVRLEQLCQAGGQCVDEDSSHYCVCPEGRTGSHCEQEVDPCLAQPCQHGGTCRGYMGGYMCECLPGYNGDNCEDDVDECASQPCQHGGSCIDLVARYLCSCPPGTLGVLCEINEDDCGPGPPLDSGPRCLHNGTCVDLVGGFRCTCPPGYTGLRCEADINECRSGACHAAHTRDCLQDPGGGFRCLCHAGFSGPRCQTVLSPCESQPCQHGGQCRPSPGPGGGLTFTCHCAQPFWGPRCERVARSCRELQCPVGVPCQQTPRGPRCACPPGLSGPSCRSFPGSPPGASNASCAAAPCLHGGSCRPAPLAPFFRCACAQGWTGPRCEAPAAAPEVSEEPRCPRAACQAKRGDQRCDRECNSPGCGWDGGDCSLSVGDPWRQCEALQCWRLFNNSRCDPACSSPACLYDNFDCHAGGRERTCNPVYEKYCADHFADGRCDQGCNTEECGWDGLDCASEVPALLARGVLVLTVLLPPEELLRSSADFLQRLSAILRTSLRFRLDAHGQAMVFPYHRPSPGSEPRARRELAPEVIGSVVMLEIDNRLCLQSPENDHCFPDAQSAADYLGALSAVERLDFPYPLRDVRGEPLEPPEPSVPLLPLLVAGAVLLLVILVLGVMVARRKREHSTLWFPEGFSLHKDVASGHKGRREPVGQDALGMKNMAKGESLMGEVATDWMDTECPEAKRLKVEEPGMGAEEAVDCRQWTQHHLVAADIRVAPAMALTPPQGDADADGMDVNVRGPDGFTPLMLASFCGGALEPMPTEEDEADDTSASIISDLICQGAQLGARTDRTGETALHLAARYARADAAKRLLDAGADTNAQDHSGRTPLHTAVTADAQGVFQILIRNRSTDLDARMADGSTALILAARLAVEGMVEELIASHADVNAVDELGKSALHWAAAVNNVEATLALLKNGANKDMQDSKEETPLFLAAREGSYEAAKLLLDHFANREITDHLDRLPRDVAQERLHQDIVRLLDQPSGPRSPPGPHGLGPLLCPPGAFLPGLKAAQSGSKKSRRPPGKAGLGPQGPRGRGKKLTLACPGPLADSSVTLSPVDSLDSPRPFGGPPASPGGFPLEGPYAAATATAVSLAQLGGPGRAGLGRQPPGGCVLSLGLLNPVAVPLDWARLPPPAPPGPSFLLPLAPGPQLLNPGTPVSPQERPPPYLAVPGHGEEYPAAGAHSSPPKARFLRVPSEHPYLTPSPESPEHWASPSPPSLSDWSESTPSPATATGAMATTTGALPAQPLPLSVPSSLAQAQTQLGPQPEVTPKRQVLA

SMILES | IC50 [nM]
COc1cccc2c1NC(=O)[C@@H](NC(=O)[C@H](CCC(F)(F)F)[C@H](CCC(F)(F)F)C(N)=O)N=C2c1cccc(C)c1 [US9273014, 29] | 5.7
CC(C)c1cccc2c1NC(=O)[C@@H](NC(=O)[C@H](CCC(F)(F)F)[C@H](CCC(F)(F)F)C(N)=O)N=C2c1ccccc1 [US9273014, 13] | 4.9
